US7901712B2, “Gliclazide nanosphere and manufacturing method therefor and application thereof” (Kaoshiung Medical University, priority 2006, dated 2011)

Experiments:
[1] = In vitro dissolution test, USP 24 paddle apparatus; assay type: physicochemical; conditions: 37°C; for DP (dissolved percentage): deionized water
Experimental: According to the USP 24 paddle apparatus, in vitro dissolution tests are performed with Hanson SR8 Plus (Chatsworth, USA). Three samples containing 80 mg of GL pure drug, GL solid complexes with an equivalent amount of GLs and GL nanospheres with an equivalent amount of GLs are poured separately into 900 ml deionized water at 37±0.5° C. with stirring rate at 100 rpm. Afterwards, 0.2 ml of each sample was withdrawn respectively at 1, 3, 5, 10, 15, 30, 60 and 120 min by the Waters transfer module (Milford, USA). Subsequently, the concentration of the samples was assayed using the HPLC method. The dissolution profiles are evaluated by the dissolution efficiency (DE) parameter (Khan, 1975) and the dissolved percentage (DP). The DE of GL pure drug, GL nanospheres and GL solid complex are calculated from the following equation (3).
wherein, y represents the percentage of dissolved product;
t1 and t2 represents the two different time points
y100 represents the maximum percentage of the dissolved sample

[2] = Particle size measurement by photon correlation spectroscopy; assay type: physicochemical; conditions: PCS, diluted in ethylene glycol, n = 3
Experimental: The average particle size of GL nanoparticles, GL solid complexes, the β-CD and the gliclazide pure drug were measured by the method of photon correlation spectroscopy (PCS) using Malvern Zetasizer 3000HSA (Malvern Worcestershire, UK). Prior to measurements, about 50 mg of each sample were diluted with 100 ml of ethylene glycol. The sizes of the above-mentioned four particle distributions were estimated by setting the intensity of the scattered light at λ=750 nm and the scattering angle at θ=90°. The background medium, i.e. the ethylene glycol (η=16.1 mPa·s) with the refractive index thereof being 1.431.

[3] = 5 min, 900 ml deionized water, 100 rpm, 80 mg GL equivalent, n = 6
[4] = 30 min, 900 ml deionized water, 100 rpm, n = 6
[5] = 60 min, 900 ml deionized water, 100 rpm, n = 6

## Cc1ccc(S(=O)(=O)NC(=O)NN2CC3CCCC3C2)cc1 (stereo not shown) [GL]
[1]; [3]
  DE5 (dissolution efficiency): 0.0129
  DP5 (dissolved percentage): 1.44
[1]; [4]
  DE30 (dissolution efficiency): 0.0229
  DP30 (dissolved percentage): 3.84
[1]; [5]
  DE60 (dissolution efficiency): 0.0416
  DP60 (dissolved percentage): 8.23
[1]; after 60 minutes
  DP (dissolved percentage): 8.23%
[1]; after five minutes
  DP (dissolved percentage): 1.44%
[2]
  Mean size ± S.D.: 47.56 ± 2.11 μm

## OC[C@H]1O[C@@H]2O[C@H]3[C@H](O)[C@@H](O)[C@@H](O[C@H]4[C@H](O)[C@@H](O)[C@@H](O[C@H]5[C@H](O)[C@@H](O)[C@@H](O[C@H]6[C@H](O)[C@@H](O)[C@@H](O[C@H]7[C@H](O)[C@@H](O)[C@@H](O[C@H]8[C@H](O)[C@@H](O)[C@@H](O[C@H]1[C@H](O)[C@H]2O)O[C@@H]8CO)O[C@@H]7CO)O[C@@H]6CO)O[C@@H]5CO)O[C@@H]4CO)O[C@@H]3CO [β-CD]
[2]
  Mean size ± S.D.: 161.03±3.12 μm
